Results taken from article PMC12534982 (Journal of Experimental & Clinical Cancer Research : CR, 2025).

Assays:
Format in all cases: cell-based, human
[1] = test system: SW620 cells; experiment: RNA sequencing (RNASeq); details: 25 µM, 48 h
Procedure: Cancer cells (2.2 × 10^6) were cultured in 100-mm Petri dishes and treated with either DMSO or NK-A 17E-233I (25 µM) for a duration of 48 h. Dry cell pellets were collected from three independent biological replicates and submitted to Novogene for RNASeq analysis (Cambridge, UK). The raw data are available in detail at the Zenodo repository (10.5281/zenodo.14833856).

[2] = test system: colorectal cancer cells; experiment: Western blot
Procedure: Cancer cells (2.2 × 10^6) were cultured in 100-mm Petri dishes and treated with DMSO or NK-A 17E-233I (25 µM) for 48 h. Cells were harvested by scrapping into 2 × Laemmli buffer (4% SDS, 20% glycerol, 125 mM Tris–HCl, pH 6.8) and heated at 100 °C for 5 min. A 4 × Laemmli sample buffer containing β-mercaptoethanol was added to the cell lysates. The proteins were separated using sodium dodecyl sulfate polyacrylamide gel electrophoresis (SDS-PAGE) and subsequently transferred to polyvinylidene fluoride (PVDF) membranes (#88518; Thermo Fisher Scientific) following the manufacturer’s protocols. The membranes were blocked at room temperature for 1 h with 5% dried skimmed milk in Tris-buffered saline with Tween-20 (TBS-T) (20 mM Tris–HCl, pH 7.5, 150 mM NaCl, 0.1% Tween-20), and the blots were incubated with the corresponding antibodies at a dilution of 1:1000–1:3000 in a blocking buffer at 4 °C overnight.
Primary antibodies utilized in this study included: anti-human DHODH (#SC-166348; Santa Cruz), anti–CHK1-pS345 (#2348; Cell Signaling), anti-POLD2 (#29765–1-AP; Proteintech), anti-POLD1 (#15646–1-AP; Proteintech), anti-p53 (#SC-126; Santa Cruz), anti-KRAS, clone 4F3 (#SAB1404011; Sigma-Aldrich), anti-GAPDH (#ab9489; Abcam), anti–α-tubulin (#T9026; Sigma-Aldrich), anti-BAX (#SC-23959; Santa Cruz), anti-cytochrome c (#66264–1-IG; Proteintech), anti-DR5 (#3696; Cell Signaling, dilution 1:500), anti–caspase-8 (#SC-56070; Santa Cruz), and anti–caspase-3 (#9662; Cell Signaling, dilution 1:500). The membranes were incubated at room temperature for 1 h with secondary antibodies (diluted 1:3000–5000), either anti-rabbit (#A0545; Sigma-Aldrich) or anti-mouse IgG-horseradish peroxidase-conjugated (#A9044; Sigma-Aldrich), in TBS-T. The images were analyzed and quantified using ImageStudio software (LI-COR) or ImageQuant 10.2 TL analysis software (Cytiva Life Sciences).

[3] = test system: colorectal cancer cells; experiment: DNA damage immunostaining (γ-H2AX, Rad51); details: 25 µM, 24 h
Procedure: To evaluate DNA damage, cancer cells (1 × 10^3) were cultured in 8-well collagen IV Ibidi chamber slides (#80,822; Ibidi) for 24 h, treated with DMSO or NK-A 17E-233I (25 µM) for an additional 24 h, and then fixed. For assessing the integrity of the cytoskeleton, neuronal cells (BFCNs) were cultured on coverslips for 14 days, while non-neuronal cells (cancer cells) were cultured on coverslips for 24 h. Both neuronal and non-neuronal cells were treated with DMSO or NK-A 17E-233I (1 µM) for 24 h, fixed, and permeabilized as described in [21]. Samples were then blocked (non-neuronal cells with 3% BSA in PBS-T and neuronal cells with 10% BSA in PBS-T) and incubated overnight at 4 °C with the appropriate primary antibodies. Following this, samples were washed with PBS-T and incubated for 1 h with Alexa-488 Phalloidin (#A12379; Invitrogen-ThermoFisher Scientific) to visualize F-actin, along with the corresponding secondary antibodies. The cells were mounted with Ibidi mounting medium containing 4',6-diamidino-2-phenylindole (DAPI, #50011; Ibidi) prior to imaging. […]
The density of γ-H2AX, Rad51, ΔΨm, and oxidative stress in cancer cells was measured as described in [32], utilizing custom macros available as open access at Zenodo (https://zenodo.org/records/8387899) to obtain raw intensities and individual cell area.

[4] = test system: SW620 cells; experiment: Complex I- and complex II-dependent respiration (permeabilized cells); details: 25 µM, 24 h
Procedure: Following treatment, cells were detached using trypsin–EDTA, washed with PBS, and resuspended in MiR05 media (composed of 110 mM sucrose, 60 mM potassium-lactobionate, 0.5 mM EGTA, 3 mM MgCl2·6H2O, 20 mM taurine, 10 mM KH2PO4, 20 mM HEPES adjusted to pH 7.1 with KOH at 37 °C, and 1 g/L BSA) at a concentration of 5 × 10^5 cells/mL. The cells were then transferred into 2 mL Oxygraph chambers for real-time measurement of OCR. Initial permeabilization was achieved using 7 μg of digitonin, followed by the sequential addition of substrates and inhibitors: 5 mM ADP, 2 mM malate, 10 μM cytochrome c, 5 mM pyruvate, 10 mM glutamate, 10 mM succinate, 0.5 μM rotenone, and 2.5 μM antimycin A. Mitochondrial membrane integrity was confirmed through the addition of cytochrome c (10 μM), with observed changes in OCR remaining below 10%. Complex I-mediated respiration was evaluated following the addition of complex I substrates (malate/pyruvate/glutamate), while complex II-mediated respiration was assessed in the presence of the complex II substrate (succinate) and the complex I inhibitor (rotenone). Residual oxygen consumption after the addition of antimycin A was subtracted from all the results to yield mitochondria-specific rates. […] Oxygen consumption rates were expressed as picomoles (pmol) per second per million cells (Mill) and normalized to the mitochondrial copy number in each sample.

## COc1cc(C)c(Oc2cc(C)cc(O)c2O)c(O)c1 [NK-A 17E-233I]
[1]
  POLD2 gene expression (RNASeq): significantly downregulated
[2]; 25 µM
  expression of wild-type p53 protein: without influencing the expression
  phosphorylation of CHK1 (pS345): confirmed the phosphorylation of CHK1
[2]; 25 µM, 48 h
  expression levels of DHODH: did not observe a change
  levels of apoptotic markers (DR5, caspase-8, Bax, cytochrome c, caspase-3): increased levels
  protein expression levels of POLD1 and POLD2: reductions
[2]; HCT116 cells
  expression of KRAS G13D mutant protein: reduced
[2]; NK-A 17E-233I 25 µM, Brequinar
  levels of p53-mutant protein: reduced
[2]; SW620 cells
  expression of KRAS G12V mutant protein: reduced
[3]
  intensity of γ-H2AX and Rad51: significant increase
[4]
  OCR supported by complex I and II substrates: did not alter
